Test results: US20090182039A1, “Choline Salt Crystal of Azulene Compound” (priority 2005, published 2009)

How the values were obtained:
[1] = Crystal form stability (DSC analysis / X-ray powder diffraction); format: physicochemical; conditions: behaviour on heating, drying or at room temperature
Description: X-ray powder diffraction and differential scanning calorimeter analysis (DSC analysis) were conducted under the following conditions. “MAC Science […]22” equipped with a copper X-ray tube was used under the conditions of a current of 40 mA, a tube voltage of […], a sampling width of 0.020°, a scanning rate of 3°/min, wavelength of 1.54056 Å, and measurement angles of diffraction range of (2θ): 3 or 5 to 40°. “TA Instrument TA 5000” was used at a temperature from room temperature to 300° C. (10° C./min) and a N2 feed rate of 50 ml/min using an aluminum sampling pan.

[2] = molecular target: T1, Human Na+-glucose cotransporter (human SGLT2) (Homo sapiens, UniProt P31639); test: Inhibition of methyl-α-D-glucopyranoside intake in CHO cells stably expressing human SGLT2; format: cell-based; conditions: stated as equivalent to the value of Example 75 of Patent Document 1
T1 construct: expressed in transfected cells; host or cells: CHO-K1
T1 sequence (P31639 1-672): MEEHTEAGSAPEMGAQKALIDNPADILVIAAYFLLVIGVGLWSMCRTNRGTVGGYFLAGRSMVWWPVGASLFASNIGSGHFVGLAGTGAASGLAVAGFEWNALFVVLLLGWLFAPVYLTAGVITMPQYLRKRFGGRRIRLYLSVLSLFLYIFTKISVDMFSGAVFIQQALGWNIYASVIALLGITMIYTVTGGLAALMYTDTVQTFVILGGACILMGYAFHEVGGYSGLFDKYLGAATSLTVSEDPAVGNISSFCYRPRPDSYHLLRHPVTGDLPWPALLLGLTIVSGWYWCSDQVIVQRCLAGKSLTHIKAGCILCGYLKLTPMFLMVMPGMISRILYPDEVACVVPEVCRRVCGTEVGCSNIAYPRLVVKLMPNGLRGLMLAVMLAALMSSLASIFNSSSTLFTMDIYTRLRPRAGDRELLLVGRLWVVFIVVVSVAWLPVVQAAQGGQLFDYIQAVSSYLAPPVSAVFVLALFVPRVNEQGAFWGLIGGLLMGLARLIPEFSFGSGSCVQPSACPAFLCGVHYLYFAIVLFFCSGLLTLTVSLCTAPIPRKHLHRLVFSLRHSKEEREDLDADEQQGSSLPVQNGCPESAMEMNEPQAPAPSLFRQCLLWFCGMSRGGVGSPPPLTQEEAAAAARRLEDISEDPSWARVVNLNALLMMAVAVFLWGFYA
Excerpt: [Test for Confirming Effect of Inhibiting Activity of Human Na^+-Glucose Cotransporter (Human SGLT2)]
First, single-stranded cDNA was reversely transcripted from total RNA originating from human kidney (manufactured by BD Biosciences Clontech) using a Superscript II (manufactured by Invitrogen Corporation) and a random hexamer. Second, using the cDNA as a template, a DNA fragment encoding human SGLT2 (Wells R. G. et al., Am. J. Physiol., 1992, 263 (3) F459) was amplified by a PCR reaction using Pyrobest DNA polymerase (manufactured by Takara Bio Inc.) (A primer where a Hind III site and an EcoRI site were inserted into the 5′ side and the 3′ side of the DNA fragment, respectively, was used).
The amplified fragment was cloned into a pCR2.1-Topo vector using a Topo TA Cloning Kit (manufactured by Invitrogen Corporation), and the cloned vector was transfected into a competent cell of Escherichia coli JM109. Ampicillin-resistant clones were cultured in a LB medium containing ampicillin (100 mg/l). A plasmid was purified from the cultured Escherichia coli using the method of Hanahan (see Maniatis et al., “Molecular Cloning”). […]

[3] = Storage stability test; format: physicochemical
Description: (2-hydroxyethyl)trimethylammonium-4-(azulene-2-ylmethyl)-2-β-D-glucopyranosylphenolate (46 g) was put into a polyethylene bag, and the opening of the bag was closed with a bead band. The bag was put into another polyethylene bag containing silica gel (12 g). The opening of the bag was closed with a bead band. The bag was placed in a metal can, which was tightly sealed and stored in a dark place at 40° C. and 75% RH for six months. Apart from this, (2-hydroxyethyl)trimethylammonium-4-(azulene-2-ylmethyl)-2-β-D-glucopyranosylphenolate (10 g) was put into an open brown container and stored in a dark place at 40° C. and 75% RH for six months.

[4] = 40° C., 75% RH, silica gel/polyethylene bags (double) in a metal can, dark place, 2 months
[5] = 40° C., 75% RH, silica gel/polyethylene bags (double) in a metal can, dark place, 4 months
[6] = 40° C., 75% RH, silica gel/polyethylene bags (double) in a metal can, dark place, 6 months
[7] = at the start of storing, 0 month
[8] = 40° C., 75% RH, brown glass container, open, dark place, 2 months
[9] = 40° C., 75% RH, brown glass container, open, dark place, 4 months
[10] = 40° C., 75% RH, brown glass container, open, dark place, 6 months

[Na+].[O-]c1ccc(Cc2cc3cccccc-3c2)cc1[C@@H]1O[C@H](CO)[C@@H](O)[C@H](O)[C@H]1O [Comparative Example 1, sodium 4-(azulen-2-ylmethyl)-2-β-D-glucopyranosylphenolate]
Stability of the crystal form [1]: change form due to dissociation of volatile components at a low temperature

[K+].[O-]c1ccc(Cc2cc3cccccc-3c2)cc1[C@@H]1O[C@H](CO)[C@@H](O)[C@H](O)[C@H]1O [Comparative Example 2, potassium 4-(azulen-2-ylmethyl)-2-β-D-glucopyranosylphenolate]
Stability of the crystal form [1]: change form due to dissociation of volatile components at a low temperature

[Li+].[O-]c1ccc(Cc2cc3cccccc-3c2)cc1[C@@H]1O[C@H](CO)[C@@H](O)[C@H](O)[C@H]1O [Comparative Example 3, lithium 4-(azulen-2-ylmethyl)-2-β-D-glucopyranosylphenolate]
Stability of the crystal form [1]: change form due to dissociation of volatile components at a low temperature

OC[C@H]1O[C@@H](c2cc(Cc3cc4cccccc-4c3)ccc2O)[C@H](O)[C@@H](O)[C@@H]1O [Comparative Example 5, (1S)-1,5-anhydro-1-[5-(azulen-2-ylmethyl)-2-hydroxyphenyl]-D-glucitol hydrate crystal-1]
Stability of the crystal form [1]: transformed into anhydride crystal-3 of azulene compound A

OC[C@H]1O[C@@H](c2cc(Cc3cc4cccccc-4c3)ccc2O)[C@H](O)[C@@H](O)[C@@H]1O [Comparative Example 7, (1S)-1,5-anhydro-1-[5-(azulen-2-ylmethyl)-2-hydroxyphenyl]-D-glucitol anhydride crystal-1]
Stability of the crystal form [1]: stable only at high temperature and cannot be isolated at room temperature

OC[C@H]1O[C@@H](c2cc(Cc3cc4cccccc-4c3)ccc2O)[C@H](O)[C@@H](O)[C@@H]1O [Comparative Example 8, (1S)-1,5-anhydro-1-[5-(azulen-2-ylmethyl)-2-hydroxyphenyl]-D-glucitol anhydride crystal-2]
Stability of the crystal form [1]: stable only at a high temperature and could not be isolated at room temperature

OC[C@H]1O[C@@H](c2cc(Cc3cc4cccccc-4c3)ccc2O)[C@H](O)[C@@H](O)[C@@H]1O [Example 1, (2-hydroxyethyl)trimethylammonium 4-(azulen-2-ylmethyl)-2-β-D-glucopyranosylphenolate]
IC50 [2]: ~8.9 nM
Analogous compounds (%) (HPCL) Maximum of each compound [3, 4]: 0.26%
Analogous compounds (%) (HPCL) Total amount [3, 4]: 0.66%
Quantitative analysis (%) (HPCL) [3, 4]: 99.5%
Water content (%) [3, 4]: 0.29%
Analogous compounds (%) (HPCL) Maximum of each compound [3, 5]: 0.26%
Analogous compounds (%) (HPCL) Total amount [3, 5]: 0.62%
Quantitative analysis (%) (HPCL) [3, 5]: 99.0%
Water content (%) [3, 5]: 0.22%
Analogous compounds (%) (HPCL) Maximum of each compound [3, 6]: 0.27%
Analogous compounds (%) (HPCL) Total amount [3, 6]: 0.44%
Quantitative analysis (%) (HPCL) [3, 6]: 99.5%
Water content (%) [3, 6]: 0.19%
Storage stability (conclusion from Table 3) ([3]; 40° C., 75% RH, six months): stable compounds
Analogous compounds (%) (HPCL) Maximum of each compound [3, 7]: 0.26%
Analogous compounds (%) (HPCL) Total amount [3, 7]: 0.61%
Quantitative analysis (%) (HPCL) [3, 7]: 99.0%
Water content (%) [3, 7]: 0.39%

OC[C@H]1O[C@@H](c2cc(Cc3cc4cccccc-4c3)ccc2O)[C@H](O)[C@@H](O)[C@@H]1O [Example 2, (2-hydroxyethyl)trimethylammonium 4-(azulen-2-ylmethyl)-2-β-D-glucopyranosylphenolate hydrate]
Analogous compounds (%) (HPCL) Maximum of each compound [3, 8]: 0.25%
Analogous compounds (%) (HPCL) Total amount [3, 8]: 0.58%
Quantitative analysis (%) (HPCL) [3, 8]: 99.2%
Water content (%) [3, 8]: 3.78%
Analogous compounds (%) (HPCL) Maximum of each compound [3, 9]: 0.24%
Analogous compounds (%) (HPCL) Total amount [3, 9]: 0.57%
Quantitative analysis (%) (HPCL) [3, 9]: 99.9%
Water content (%) [3, 9]: 3.59%
Analogous compounds (%) (HPCL) Maximum of each compound [3, 10]: 0.24%
Analogous compounds (%) (HPCL) Total amount [3, 10]: 0.43%
Quantitative analysis (%) (HPCL) [3, 10]: 98.8%
Water content (%) [3, 10]: 3.61%
